# Laboratory results as given in patent US20070136834A1, “Method and system for real-time analysis of biosensor data” (priority 2005, published 2007).
# Tested on: naturally-occurring algae
# Assay: Variable chlorophyll fluorescence induction of naturally-occurring algae in Clinch River water, differential displacement (least-squares) analysis against control curve
# Assay type: cell-based
# From the text: Primary-source drinking water is monitored at regular intervals, for example every three to five minutes. • 2. Each (analog) chlorophyll fluorescence induction curve that is acquired for each interval is digitized and stored. The shape of each curve is a recording of the physiological status of the algae at that point in time. • 3. For each subsequent recording, such as three to five minutes later, the variable chlorophyll fluorescence induction curve at that time can be compared with the curve that was recorded three to five minutes earlier. • 4. By using a nonlinear least-squares fit of the current data with the previous curve, a quantitative assessment can be made that determines the degree of departure of the current curve as compared to its predecessor. • 5. Based on an algorithm, such as algorithms described herein, an objective real-time assessment of the degree of departure is obtained between the variable fluorescence curves and the correlation of that departure with the possible presence of toxins in the water.
# Data analysis typically comprises three steps. […] Third, the set of numbers that comprises the transformation coefficient is analyzed for specific patterns analyzed by custom software to detect “fingerprints” for specific toxins such as chemical toxins. […]
smiles,measurement,value
COP(=S)(OC)Oc1ccc([N+](=O)[O-])cc1 [methyl parathion],effect on shape of variable fluorescence induction curve,change the shape of the variable fluorescence induction curve
